Measured values reported in paper PMC11229374, “Unlocking the potential of protein-derived peptides to target G-quadruplex DNA: from recognition to anticancer activity” (Nucleic Acids Research, 2024).
*: point of attachment. FITC = O=C1OC2(c3ccc(O)cc3Oc3cc(O)ccc32)c2ccc(NC(=S)*)cc21; AEEA = NCCOCCOCC(=O)O

Assays:
U2OS cells = test: Viability assay (crystal violet), U2OS; assay type: cell-based; conditions: 72 h treatment
Protocol: U2OS, HCT116 and MDA-MB-231 cells were purchased from the ATCC and grown in Dulbecco modified Eagle's medium (DMEM; EuroClone, Milan, Italy; ECM0728L) supplemented with 10% Fetal Bovine Serum (FBS, ThermoFisher Scientific/Gibco, Waltham, MA, USA; 10270-106), 2 mM L-glutamine and antibiotics in a humidified incubator at 37°C with 5% CO2 and atmospheric O2 concentration. Cell lines were authenticated and tested to be mycoplasma-free.
U2OS, HCT116, and MDA-MB-231 cells were seeded in 24-well plates at a density of 1 × 10^4, 20 × 10^3 and 12 × 10^3 for each well, respectively. After 24 h, cells were treated with the indicated peptides and incubated at 37°C for additional 72 h. Upon treatment completion, cell medium was removed, the wells were washed twice in phosphate-buffered saline (PBS) and fixed with 4% formaldehyde for 15 min at room temperature (RT). After washing, 500 μl of crystal violet staining solution (Sigma-Aldrich, St. Louis, MO, USA) was added to each well and incubated for 30 min at RT. Finally, the plates were rinsed twice with water, air-dried and cell pellets were dissolved in 400 μl of a 10% aqueous solution of acetic acid. In total, 200 μl of each sample was transferred to a 96-well plate, and the optical density was measured at 570 nm (OD570) with an ELISA reader (Thermo Scientific, Waltham, MA, USA). The average absorbance in each condition was used to calculate the viability expressed as a percentage of treated vs untreated conditions (CTR).

HER2 = test: Real-time RT-PCR of HER2 expression; assay type: cell-based; conditions: U2OS, 10 μM peptide, 8, 16 and 24 h
Protocol: (§1) U2OS cells were seeded on glass coverslips in a 6-well plate at a density of 2 × 10^5 cells/well and treated with the peptides for 8, 16, and 24 h. Total RNA was isolated from the cell lines using WizPrep™ Total RNA Mini Kit (Cell). The quality and the quantity of RNA extraction was assessed by evaluating the A280/A260 nm and A260/A230 nm absorbance ratio (Nanodrop 1000, Thermo Fisher Scientific). The mRNA Reverse Transcription (RT) was performed using the QuantiTect Reverse Transcription Kit (Qiagen). mRNA expression was evaluated by SYBR Green (Applied Biosystems) in the QuantStudio 6 Flex Detection system (ThermoFisher Scientific). Primer sequences are indicated in Supplementary Table S2.

BCL-2 = test: Real-time RT-PCR of BCL-2 expression; assay type: cell-based; conditions: U2OS, 10 μM peptide, 8, 16 and 24 h
Protocol: as §1

G4 = test: CD experiments, G4-stabilizing properties of R7W conjugate versus parent; assay type: binding; conditions: CD experiments (Supplementary Figure S39)
Text: The buffer baseline was subtracted from each spectrum.

γH2AX in U2OS cells = test: Immunofluorescence of γH2AX (DNA damage); assay type: cell-based; conditions: 10 μM peptide, 24 h
Protocol: To evaluate telomere-localized DNA damage, FISH assay with a telomeric probe was combined to IF staining of γH2AX. Cells were seeded on glass coverslips in a 6-well plate at a density of 1 × 10^5 cells/well. After 24 h of treatment with indicated peptides, cells were washed three times with PBS 1×, fixed with formaldehyde 4% in PBS for 2 min at RT and washed three times with PBS 1×. The fixation protocol was repeated twice and then the samples were dehydrated by sequential exposure to 70%, 90% and 100% EtOH and DNA was denatured by incubation at 80°C for 3 min in the presence of the telomere probe solution (10 mM of Tris pH 7.2, MgCl2 buffer, 70% of deionized formamide, […] of TelC-Cy3 telomeric probe (Panagene, Daejeon, Korea), 0.25% of blocking reagent). […] For quantitative analysis of γH2AX positive cells, at least 200 cells/condition were scored in triplicate. For Telomere-Induced Foci (TIFs) analysis, at least 25 γH2AX-positive cells on a single plane were scored. […] Fluorescence signals were recorded with Zeiss Laser Scanning Microscope 510 Meta (63× magnification) (Zeiss, Germany) and the experiment was analyzed with Adobe Photoshop CC 2019.

FITC-Myb397-415 = biological target: T1, FITC-Myb397-415 (UniProt P11938 397-415); test: microscale thermophoresis; 5 mM KH2PO4/K2HPO4, 20 mM KCl (c-MYC stock annealed in LiCl), pH 7.0; MST 25 C with 0.1% Tween, 5% DMSO, 20 nM labelled peptide, DNA titrated (stocks from 10 or 20 uM, mixed 1:1); ITC 25 C; conditions: tags: N-terminal FITC-O2Oc; C-terminal NH2; parallel G4
T1 chain: {FITC-AEEA}-NHTGNSIRHRFRVYLSKRL-NH2

FITC-MybA400 = biological target: T2, FITC-MybA400 (UniProt P11938 397-415, G400A); test: MST; 20 mM K+; 5 mM KH2PO4/K2HPO4 pH 7.0, 20 mM KCl (LiCl for c-MYC stock), 25 C; MST with 0.1% Tween and 5% DMSO, 20 nM FITC-peptide; conditions: tags: N-terminal FITC; parallel G4
T2 chain: {FITC-AEEA}-NHTANSIRHRFRVYLSKRL-NH2

MybA400 = biological target: T3, MybA400 (UniProt P11938 397-415, G400A); test: isothermal titration calorimetry; 5 mM KH2PO4/K2HPO4, 20 mM KCl (c-MYC stock annealed in LiCl), pH 7.0; MST 25 C with 0.1% Tween, 5% DMSO, 20 nM labelled peptide, DNA titrated (stocks from 10 or 20 uM, mixed 1:1); ITC 25 C; conditions: tags: N-acetyl; C-terminal NH2; chain copies: 2; parallel G4
T3 chain: NHTANSIRHRFRVYLSKRL

Myb397-415 = biological target: T4, Myb397-415 (UniProt P11938 397-415); test: as above; conditions: tags: N-acetyl; C-terminal NH2; chain copies: 2; parallel G4
T4 chain: NHTGNSIRHRFRVYLSKRL

MybA412 = biological target: T5, MybA412 (Saccharomyces cerevisiae, UniProt P11938 397-415, S412A); test: as above; conditions: tags: N-acetyl; C-terminal NH2; chain copies: 2; parallel G4
T5 chain: NHTGNSIRHRFRVYLAKRL

## RRRRRRRW-GG-NHTGNSIRHRFRVYLSKRL [R7W-Myb^397–415]
U2OS cells; read-out: IC50 (concentration of drug capable of killing 50% of cells)
  IC50: ~5000 nM
HER2
  HER2 expression level: transiently modulated
BCL-2
  BCL-2 expression level: transiently modulated
G4
  G4-stabilizing properties compared with Myb^397–415: no significant differences

## RRRRRRRW-GG-NHTANSIRHRFRVYLSKRL [R7W-Myb^A400, Myb^A400 N-terminally conjugated to the cell-penetrating peptide R7W via a glycine–glycine spacer]
γH2AX in U2OS cells
  Accumulation of phosphorylated histone H2AX (γH2AX): most pronounced response
U2OS cells
  Inhibition of tumour cell growth, R7W-conjugated peptides: essentially to the same extent as R7W-Myb^397–415

## CGGGCGGGCGCTAGGGAGGGT (structured_DNA) [c-KIT2]
FITC-Myb397-415
  Kd: 130 ± 15 nM
FITC-MybA400
  Kd: ~170 nM
MybA400
  Kd: 137 ± 24 nM
Myb397-415
  Kd: 200 ± 12 nM
MybA412
  Kd: 187 ± 28 nM
